# In patent publication US20170050045A1, “PHOTODYNAMIC THERAPY USING IN SITU NONLINEAR PHOTON UPCONVERSION OF NIR LIGHT BY BIOLOGICAL MEDIUM” (The Research Foundation for The State University Of New York, priority 2014, published 2017):
# Columns and labels:
# [1] = test system: HeLa cells; experiment: PDT phototoxicity in HeLa cells grown on collagen substrates, SHG excitation at 818 nm (detached and PI positive cells counted); type: cell-based
# Method: To verify the efficiency of the different nonlinear-optical conversion mechanisms for PDT excitation, cell cultured samples were used in different lay-outs permitting separation of the relative contribution of one specific nonlinear process. All experiments were made in a Petri dish through the bottom optical glass window in an inverted microscopy configuration. When cells were grown directly on the optical glass window, the pump and Stokes waves were synchronized with a zero delay and the beams were focused into the cell culture treated with the photosensitizer, CARS/FWM signals were generated by the natural intercellular biomolecules of proteins or lipids. In this case, the CARS/FWM conversion was also supplemented by the TPA process directly in the photosensitizer and a combination of CARS/FWM/TPA was obtained (see diagram 1 in FIG. 3a). To separate the TPA contribution, a pulse delay of ˜5 ps between the pump and the Stokes waves was introduced which disabled the CARS/FWM process. Therefore, with the pulse delay t, TPA of photosensitizer produced the dominant PDT effect (see diagram 2 in FIG. 3a). We used another lay-out in which cells were grown on a thin layer of polymerized collagen gel (ordered collagen structures). When the pump and Stokes laser beams were focused in collagen and had zero delay, SHG/FWM/SFG (sum frequency generation) nonlinear interactions occurred in the collagen layer (see diagram 3 in FIG. 3a). To selectively look at the SHG contribution, a pulse delay was introduced which disabled the FWM and SFG processes. The second harmonic signal generated by the collagen structure propagated to reach the cells treated with the photosensitizer, and efficiently absorbed by it to excite PDT (see diagram 4 in FIG. 3a). The dose of laser radiation delivered to the sample was estimated to be ˜60 J/cm^2 at 812.6 or 818.8 nm; ˜30 J/cm^2 at 1064 nm per scan, for CARS/FWM in proteins/lipids cellular environmental medium; and ˜60 J/cm^2 for SHG in polymerized collagen gels.
# Cell culture, drug treatment and PDT design. The process of PDT was modeled on the cultured HeLa cells. FIG. 3b diagrammatically illustrates the PDT procedure. HeLa cells were grown in Advanced DMEM (Life Technologies), supplemented with 2.5% fetal calf serum (FBS) (Sigma, St. Louis, Mo.), 1% glutamax (Life Technologies), 1% Antibiotic Antimycotic Solution (Sigma) at 37° C. in a humidified atmosphere containing 5% CO2. Prior to the incorporation of the photosensitizer and PDT experiments, cells were placed into glass-bottom dishes (MatTek, Ashland, Mass.). In the experiments involving SHG, the glass-bottom dishes were coated either with monomeric collagen (Sigma) or with collagen gels polymerized on the glass window. A stock solution of Chlorin-e6 was prepared in DMSO. The PDT process in the cultured cells was initiated by nonlinear optical excitation of the Chlorin-e6 photosensitizer, which was diluted to a final concentration of 90 μM in Advanced DMEM containing 15% FBS and 0.005% Tween 80. Cells were incubated with the drug for ninety minutes, thoroughly washed to remove unincorporated drug and subsequently used for optical exposure for PDT treatment.
# During the laser irradiation, cells were maintained at 37° C. and 5% CO2 in a Live-Cell incubator (Pathology Devices, Westminster, Md.) mounted on the microscope stage. Following the laser irradiation, the cells were incubated for 4 hours in a fresh regular medium at 37° C. […]
# [2] = test system: HeLa cells; experiment: PDT phototoxicity in cultured HeLa cells, CARS/FWM/TPA vs TPA excitation (calcein AM / propidium iodide staining); type: cell-based; settings: 90 μM, 90 min incubation, average of four series
# Excerpt: Materials and Methods. Optical setup. The experimental setup used for the present nonlinear optical excitation of PDT utilized a custom made laser scanning microscopy system with two excitation NIR laser sources. A picosecond Nd:YVO4 laser (picoTRAIN IC-10000/532-4000, HighQ Laser) with pulse width ˜5 ps and a repetition rate of 76 MHz was used as the source for the Stokes wave ωs at the fundamental output of 1064 nm as well as for synchronous pumping of a tunable optical parametric oscillator (OPO, Levante Emerald, APE) by using its 532 second harmonic output with a pulse width of ˜4 ps. […] When the beating frequency ωp-ωs is tuned to be resonant with a vibrational mode of a selected molecular bond, the CARS signal together with its nonresonant electronic FWM background signal is detected at the anti-Stokes frequency of ωas=2ωp−ωs. Using our instrument setup, a sample can be excited and the imaged in the CARS/FWM mode in the vibrational frequency range of 900-3300 cm^−1 and simultaneously at 670-990 nm in the TPEF (two-photon excited fluorescence) or/and in the SHG mode. […] Thus, this experimental setup enables concurrent operation of the system in the PDT excitation mode as well as in the imaging mode (CARS/FWM/fluorescence) which is highly suitable for PDT process monitoring. […]
smiles,measurement,setting,value
C=Cc1c(C)c2cc3nc(c(CC(=O)O)c4[nH]c(cc5nc(cc1[nH]2)C(C)=C5CC)c(C)c4C(=O)O)[C@@H](CCC(=O)O)[C@@H]3C [Chlorin e6],difference in phototoxicity between polymerized and monomeric collagen groups,"[1]; 50 scans, 818 nm, 3000 J/cm^2",tenfold
same,"detachment from the substrate, or positive PI staining of cells","[1]; cells on fibrillar (polymerized) collagen, 50 scans by 818 nm pulsed laser, 3000 J/cm^2, 90 μM",up to 50%
same,detached and PI positive cells,"[1]; cells on fibrillar collagen substrates, 75 scans, 818 nm, ~4500/cm^2, 90 μM",~70%
same,"cytotoxicity, by counting of the detached and PI positive cells","[1]; cells on monomeric collagen, 50 scans by 818 nm pulsed laser, 3000 J/cm^2, 90 μM",less than 5%
same,cells either detached or displayed PI stain,"[1]; cells on monomeric collagen, 75 scans, 818 nm, ~4500/cm^2, 90 μM",~35%
same,necrotic cells (PI positive cells),"[2]; CARS/FWM/TPA mode (zero pulse delay), 818 nm pump + 1064 nm Stokes, 70 scans, ~6300 J/cm^2",40%
same,necrotic cells (PI positive cells),"[2]; TPA mode (delayed pulses), same number of scans (70)",20%
